Converted amounts (≈) assume the structure as drawn. Where two headings read alike, the source gives them in different places.
Legend:
[1] = Description: The pH of the test medium in this study was measured to be 8.50 ± 0.10. The neutral fraction (fn) of the target compounds, their pH-adjusted octanol–water coefficients (log Dow), and their pH-adjusted lipid–water coefficients (log Dlipw) were calculated for this pH condition (Table 1). The calculation and related details are given in the Supporting Information (SI) in Text S1. […]
Text 1. Calculation of physicochemical property parameters
The pH of the artificial freshwater environment for D. magna was measured as […]. The fraction of neutral species (f n) for the test compounds was calculated as the following equation:1–3 […]
where i is 1 for acids and -1 for bases. The pH-adjusted octanol-water coefficient log

[2] = in vivo; conditions: Daphnia magna
Description: Preliminary tests were conducted for each target compound at widely spaced concentrations to identify the concentration range for deriving an accurate dose–response curve. The stock solutions of individual test compounds were prepared in methanol and diluted with 10 mL of aerated AFW to different concentrations in 20 mL glass vials. The methanol volume was set to 100 μL in each vial as the solvent carrier, and a control group containing 100 μL of methanol without the target compound was used as the carrier solvent control. Each test included at least five concentration levels, and the concentrations of test compounds in the medium were experimentally measured (SI, Table S1). Each treatment included four replicates. […] The obtained dose–response data were fitted to the Boltzmann equation:[24] [drawing 1] 1 where C is the measured concentration of the test compound.

[3] = test system: D. magna; conditions: for BCF in vivo (dynamic BCF): ku/kd; for ku (uptake rate constant): 24 h uptake phase; for BCF in vivo ratio / half-life in vivo ratio: methylated derivative over demethylated counterpart
[4] = test system: D. magna; conditions: in vivo
[5] = test system: H. azteca and G. pulex; conditions: cited from earlier work
[6] = in vivo; conditions: whole D. magna (wet weight), 1 mg L^–1, pH 8.5
[7] = cited from earlier work; for pKa: measured value, ref CompTox Chemicals Dashboard; for logKow: measured values, ref PubChem
[8] = test system: D. magna; assay: Interconversion (methylation/demethylation) in D. magna
[9] = pH 8.50, calculated, crosschecked with ChemAxon
[10] = end of uptake phase, 24 h, 1 mg L^–1 nominal
[11] = after 2 h of exposure, 1 mg L^–1 nominal

With `C[C@H](C(=O)O)c1ccc2cc(O)ccc2c1` [DM-naproxen] the “fn (neutral fraction)” value ([1]; pH 8.50, calculated) was 0, the logDlipw ([1]; pH 8.50, calculated) was −0.67 and the logDow [1, 9] was -1.32. The logDlipw ([1]; pH 8.50, calculated, listed as DM-Naproxen) was -0.67, the LC50 at 48 h [2] was 67.9 ± 6 mg/L (≈ 314 µM) and the “BCF in vivo (dynamic BCF)” value ([3]; D. magna, 1 mg L^–1 nominal) was 0 L kg^–1, w.w. The “level in D. magna” value ([3]; bioaccumulation experiment, 1 mg L^–1 nominal) was “below the LOD” and the “formation rate of demethylated TP” value ([4]; Daphnia magna, pH 8.5) was 1.5 ± 0.3 nmol g^–1 h^–1.
For `COC(=O)Cc1ccccc1Nc1c(Cl)cccc1Cl` [methylated diclofenac], the “bioaccumulation relative to diclofenac” value [5] is given as 25–110 fold.
With `COC(=O)c1ccc(O)cc1` [methylparaben] the “fn (neutral fraction)” value ([1]; pH 8.50, calculated) was 0.41, the logDlipw ([1]; pH 8.50, calculated) was 1.93 and the logDow [1, 9] was 1.57. The LC50 at 48 h [2] was 34.4 ± 4.3 mg/L (≈ 226 µM), the “BCF in vivo (dynamic BCF)” value ([3]; D. magna, 1 mg L^–1 nominal) was 2.8 ± 0.2 L kg^–1, w.w and the “ku (uptake rate constant)” value ([3]; D. magna) was 0.7 ± 0.1 L/h/kg. The “concentration in D. magna” value [3, 10] was 2216.3 ± 85.7 ng g^–1 (w.w.), the “demethylation in D. magna (demethylated product in exposed D. magna)” value (“demethylation in D. magna” for short) [4] was “evident” and the half-life [6] was 2.7 h.
For `O=C(O)c1ccc(O)cc1` [DM-methylparaben], the logDow ([1]; pH 8.5) was -2.38, the “fn (neutral fraction)” value ([1]; pH 8.50, calculated) was 0 and the LC50 at 48 h [2] was 226 ± 17.3 mg/L (≈ 1630 µM). The “BCF in vivo (dynamic BCF)” value ([3]; D. magna, 1 mg L^–1 nominal) was 0.9 ± 0.5 L kg^–1, w.w, the “ku (uptake rate constant)” value ([3]; D. magna) was 0.3 ± 0.0 L/h/kg and the “concentration in D. magna” value [3, 10] was 682.7 ± 91.5 ng g^–1 (w.w.). The “BCF in vivo ratio” value [3] was 1.0, the “half-life in vivo ratio” value [3] was 1.0 and the “molar equivalent of demethylated TP relative to methylated parent in D. magna” value ([4]; Daphnia magna, 12 h, pH 8.5) was “about 2.0%”. The “molar equivalent of demethylated TP in D. magna” value ([4]; Daphnia magna, 24 h, pH 8.5) was 54.8%, the pKa [7] was 4.54 and the logKow [7] was 1.58. It also gave a half-life [6] of 2.2 h.
With `COc1ccc(NC(C)=O)cc1` [M-acetaminophen] the “fn (neutral fraction)” value ([1]; pH 8.50, calculated) was 1, the logDlipw ([1]; pH 8.50, calculated) was 1.45 and the logDow [1, 9] was 1.03. For the same molecule, the LC50 at 48 h [2] was 32.1 ± 5.7 mg/L (≈ 194 µM), the “BCF in vivo (dynamic BCF)” value ([3]; D. magna, 1 mg L^–1 nominal) was 10.0 ± 0.0 L kg^–1, w.w and the “ku (uptake rate constant)” value ([3]; D. magna) was 17.3 ± 0.4 L/h/kg. For the same molecule, the “fold difference of concentration in D. magna vs acetaminophen” value ([3]; after 2 h of exposure) was 28 fold, the “concentration in D. magna” value [3, 11] was 8730.7 ± 2900.9 ng g^–1 (w.w.) and the “BCF in vivo ratio” value [3] was 33.3. The “half-life in vivo ratio” value [3] was 0.4, the “BCF in vivo ratio” value ([3]; listed as methylated acetaminophen) was “about 33” and the “demethylation in D. magna” value [4] was “not detected”. For the same molecule, the logKow [7] was 1.03 and the half-life [6] was 0.4 h.
With `COc1ccc2cc([C@H](C)C(=O)O)ccc2c1` [naproxen, reference compound] the “BCF in vivo (dynamic BCF)” value ([3]; D. magna, 1 mg L^–1 nominal) was 1.5 ± 0.6 L kg^–1, w.w and the “demethylation in D. magna” value [4] was “evident”.
In the case of `CN1C(=O)CN=C(c2ccccc2)c2cc(Cl)ccc21` [diazepam, reference compound], the “fn (neutral fraction)” value ([1]; pH 8.50, calculated) is listed as 1, the “BCF in vivo (dynamic BCF)” value ([3]; D. magna, 1 mg L^–1 nominal) is listed as 9.0 ± 0.4 L kg^–1, w.w and the logKow [7] is listed as 2.82. The “demethylation in D. magna” value ([8]; exposure to individual methylated compound) was “evident”.
In the case of `CC(=O)Nc1ccc(O)cc1` [acetaminophen, reference compound], the logDlipw ([1]; pH 8.5) is reported as 0.89, the logDow ([1]; pH 8.5) is reported as 0.41 and the “fn (neutral fraction)” value ([1]; pH 8.50, calculated) is reported as 0.9. The LC50 at 48 h ([2]; other: waterborne exposure in the test medium) was 21.2 ± 2.4 mg/L (≈ 140 µM), the “BCF in vivo (dynamic BCF)” value ([3]; D. magna, 1 mg L^–1 nominal) was 0.3 ± 0.0 L kg^–1, w.w and the “ku (uptake rate constant)” value ([3]; D. magna) was 0.2 ± 0.0 L/h/kg. The “rise of BCF after methylation” value ([3]; D. magna, in vivo) was “approximately 33 fold”, the “concentration in D. magna” value [3, 11] was 308.7 ± 42.6 ng g^–1 (w.w.) and the “BCF in vivo ratio” value [3] was 1.0. For the same molecule, the “half-life in vivo ratio” value [3] was 1.0, the pKa [7] was 9.38 and the logKow [7] was 0.46. For the same molecule, the half-life [6] was 1 h.
For `O=C1CN=C(c2ccccc2)c2cc(Cl)ccc2N1` [DM-diazepam, reference compound], the “fn (neutral fraction)” value ([1]; pH 8.50, calculated) was 1, the “BCF in vivo (dynamic BCF)” value ([3]; D. magna, 1 mg L^–1 nominal) was 9.8 ± 0.3 L kg^–1, w.w and the “ku (uptake rate constant)” value ([3]; D. magna) was 1.2 ± 0.1 L/h/kg. For the same molecule, the “molar equivalent of demethylated TP in D. magna” value ([8]; at the end of depuration) was 33.5%.
